Laboratory results from patent US7893070B2, “Method of treating parturient placental mammals in order to reduce maternal and/or uterine exhaustion” (priority 2005, dated 2011).

Key:
sows [1] = settings: intravenous injection of 0.5 mg/50 kg bodyweight, cited from earlier work
[2] = Uptake of caffeine into blood (serum) of pregnant sows
Description: Blood samples were collected pre-administration and at multiple time points post administration through an ear-vein catheter such that the uptake of caffeine into the blood (serum) could be modelled. Besides the caffeine level, the levels of its main metabolites paraxanthine, theophylline, and theobromine were determined.
This pool was not modelled.

sows [3] = test: 900 mg caffeine oral paste, actively managed farm in Bieganow; format: in vivo, swine; settings: for increase in feed consumption of sows: vs control
Description: The method of treatment according to the present invention was further tested at a well-managed farm in Bieganow, Poland. In this facility farrowings are attended by (veterinary) personnel and parturition is actively managed. As a result, stillbirth rates are extremely low (0.33 piglets per litter or 3% of the piglets).
At this farm, 89 sows comprising one farrowing group were available for the test. These sows were assigned to receive either a 900 mg of caffeine containing paste in accordance with the invention or no treatment, based on parity, body condition, and historical performance. The treatment composition was administered orally to selected sows when they were expected to farrow in the next 8 hours.

sows [4] = test: Caffeine suppository to sows after birth of first piglet; indices of piglet health and birth interval; format: in vivo, swine
From the text: In commercial swine production, typically 8% of the fetuses are stillborn, and 12% of the newborn piglets die prior to weaning (SIVA, 2005). Oxygen deprivation during the birth process is an important causal factor for both stillbirths and neonatal mortality. An indicator for oxygen deprivation is umbilical (blood) pH. This pH is typically 7.4, but upon oxygen deprivation CO2 accumulates in the blood and tissues resulting in a drop in pH. If this drop is severe enough, it will result in the death of the fetus. A moderate drop in pH may not be lethal but may inflict sufficient metabolic damage such that it affects the health and fitness of the newborn and thus its chances of survival. Measurements of umbilical (blood) pH confirmed that this pH drops as the length of parturition increases. Previous work by Randall (1971) has shown a good correlation between umbilical pH and livability of piglets (FIG. 1).
Infrared radiation temperature is another indicator of metabolic health of a mammal. A strong correlation between infrared temperature and survival chances for newborn pigs has been shown. This infrared temperature was obtained by collecting piglets at birth, immediately drying them, and measuring infrared temperature. In a first experiment, 7 sows received a caffeine-comprising suppository (1-2 mg/kg BW, or 400-600 mg) after the birth of the first piglet in a litter. The indices of piglet health as described here above were compared to those of a control group of 6 sows. […] (P=0.04).

sows [5] = test: 900 mg caffeine oral paste, Velddriel research station; stillbirth and piglet mortality; format: in vivo, swine; settings: 900 mg oral paste
Description: The method of treatment according to the present invention was further tested at the Provimi research station in Velddriel, the Netherlands, in three farrowing groups. In the Velddriel facility farrowings are not attended by (veterinary) personnel and parturition is thus not actively managed. Stillbirth and mortality rates are thus in line with commercial practices.
Sows were assigned to treatment based on parity. Overall, 27 sows served as controls and 29 were treated in accordance with the present invention when they were expected to farrow in the next 8 hours. Treated sows were administered 900 mg of caffeine comprised in a paste for oral ingestion, in accordance with the invention.

sows [6] = test: 400 mg caffeine oral paste to sows after birth of first piglet; duration of parturition; format: in vivo, swine; settings: 400 mg oral paste; controls 159 minutes
Description: In a second experiment, 19 sows received 400 mg of caffeine comprised in a paste for oral ingestion, in accordance with the invention, after the birth of the first piglet while 19 sows served as untreated controls.
Practically, some untreated animals delivered their litter expediently and with few problems, but there were a substantial number of mothers for whom parturition became a lengthy process.

[7] = Transfer of caffeine from the mother to piglets (blood at birth) and colostrum; format: in vivo, swine; settings: 900 mg oral paste to sow; same time-point
From the text: In order to assess whether caffeine was transferred from the mother to the piglets, blood samples were collected from several piglets at the time of birth and samples from colostrum were taken. […] The concentrations found were dependent on the time relative to dosing the treatment composition. For piglets at birth, they were roughly ¼^th the concentration in the mother at that time-point, and in milk they were roughly ⅙^th the concentration in the mother at that time-point. Values observed were in the range of 0.1 to 1.5 mg/L.

For `CC(C)NCC(O)COc1cccc2[nH]c3ccccc3c12` (centres unmarked) [carazolol], the stillbirth rate (sows [1]; reduced from 8.3) is given as 7.1% and the “rate of deliveries lasting more than six hours” value (sows [1]; reduced from 14.5) is given as 11.0%.

With `Cn1c(=O)c2c(ncn2C)n(C)c1=O` [caffeine] the half-life ([2]; female, pig, in vivo) was ~22 h, the “peak blood concentration, second compartment” value ([2]; pregnant sows, 940 mg of caffeine administered (half that for the 470 mg dose)) was ~5 µM and the “time of peak blood concentration, second compartment” value ([2]; pregnant sows, post administration) was 8 h. For the same molecule, the bio-availability ([2]; pregnant sows, assuming caffeine distributed in 60% of body mass) was 44%, the “difference in stillbirths between treatment groups” value (sows [3]; 900 mg oral paste vs no treatment) was “no statistically significant differences” and the assistance rate (sows [3]; 900 mg oral paste, control group 26%) was 18%. For the same molecule, the “sows requiring medical care post-farrowing” value (sows [3]; 900 mg oral paste, control group seven sows (one died)) was “no sows required medical care”, the “increase in feed consumption of sows” value (sows [3]; first day post farrowing) was 14% and the “increase in feed consumption of sows” value (sows [3]; first five days post farrowing) was 10%. For the same molecule, the “piglets heavier than controls at weaning” value (sows [3]; piglets from treated sows) was 9%, the “increase of piglet umbilical (blood) pH” value (sows [4]; suppository 1-2 mg/kg BW (400-600 mg) vs control sows, P=0.03) was 0.044±0.020 units and the “increase of piglet infrared radiation temperature” value (sows [4]; suppository 1-2 mg/kg BW (400-600 mg) vs control sows, P=0.04) was 0.60±0.29 °C. For the same molecule, the “numerical increase of birth interval between subsequent piglets” value (sows [4]; suppository, P=0.11 (control 9 minutes, P<0.01)) was 3.6 minutes for each hour into parturition, the “stillborn piglets per litter” value (sows [5]; expected to farrow in next 8 hours, control 0.89) was 0.31 piglets per litter and the “piglets died or euthanized for being weak after parturition” value (sows [5]; control 1.15) was 0.48 piglets per litter. For the same molecule, the “mean time interval between the birth of the first and 10th piglet” value (sows [6]) was 110 min, the “caffeine concentration in milk relative to the concentration in the mother” value [7] was “roughly ⅙” and the “caffeine concentration in piglets at birth relative to the concentration in the mother” value [7] was “roughly ¼”.
